Data from ChEMBL document CHEMBL1147043, “Comparative metabolism of radiolabeled muraglitazar in animals and humans by quantitative and qualitative metabolite profiling” (Drug Metab Dispos, 2007).

Tests used:
[1] = Metabolic stability in cynomolgus monkey hepatocytes assessed as O-demethyl muraglitazar glucuronide level by LC/MS analysis relative to control; assay type: ADME, cell-based, Macaca fascicularis, Hepatocyte
[2] = Biodistribution in orally dosed human feces assessed as 17-hydroxy-O-demethyl muraglitazar level by LC/MS analysis; assay type: ADME, organism-based; conditions: in vivo, po
[3] = Drug concentration in Sprague-Dawley rat urine assessed as recovery of radioactive dose at 11 mg/kg, po after 168 hrs; assay type: ADME, organism-based; parameters: dose 11 mg/kg, route oral; conditions: in vivo
[4] = Metabolic stability in CD1 mouse hepatocytes assessed as hydroxyl-O-demethyl muraglitazar glucuronide level by LC/MS analysis relative to control; assay type: ADME, cell-based, Hepatocyte
Hepatocyte [5] = assay: Metabolic stability in Sprague-Dawley rat hepatocytes assessed as 8,12-dihydroxy muraglitazar level by LC/MS analysis relative to control; assay type: ADME, cell-based
Plasma [6] = assay: Biodistribution in orally dosed human plasma assessed as 12-dihydroxy muraglitazar level after 4 hrs by LC/MS analysis; assay type: ADME, organism-based; conditions: in vivo, po
[7] = Tmax in cynomolgus monkey at 1.9 mg/kg, po after 24 hrs; assay type: ADME, organism-based, Macaca fascicularis; parameters: dose 1.9 mg/kg, route oral; conditions: in vivo
Plasma [8] = assay: Biodistribution in orally dosed cynomolgus monkey plasma assessed as […] muraglitazar level after 1 hr by LC/MS analysis; assay type: ADME, organism-based, Macaca fascicularis; conditions: in vivo, po
[9] = Fecal excretion of compound in orally dosed cynomolgus monkey within 96 hrs; assay type: ADME, organism-based, Macaca fascicularis; conditions: faeces, po, read-out: Activity
Cynomolgus monkey = assay: Cmax in cynomolgus monkey at 1.9 mg/kg, po after 24 hrs; assay type: ADME, organism-based, Macaca fascicularis; parameters: dose 1.9 mg/kg, route oral; conditions: in vivo
[10] = Biodistribution in orally dosed human feces assessed as 12,17-dihydroxy muraglitazar level by LC/MS analysis; assay type: ADME, organism-based; conditions: in vivo, po
Plasma [11] = assay: Biodistribution in orally dosed human plasma assessed as […] muraglitazar level after 4 hrs by LC/MS analysis; assay type: ADME, organism-based; conditions: in vivo, po
Rattus norvegicus [12] = assay: Biodistribution in orally dosed Sprague-Dawley rat feces assessed as 8-hydroxy muraglitazar level by LC/MS analysis; assay type: ADME, organism-based; conditions: in vivo, po
Plasma [13] = assay: Biodistribution in orally dosed Sprague-Dawley rat plasma assessed as O-demethyl muraglitazar level after 12 hrs by LC/MS analysis; assay type: ADME, organism-based; conditions: in vivo, po
[14] = Drug concentration in bile duct-cannulated CD1 mouse urine assessed as recovery of radioactive dose at 40 mg/kg, po after 24 hrs; assay type: ADME, organism-based; parameters: dose 40 mg/kg, route oral; conditions: in vivo
[15] = Biodistribution in orally dosed human feces assessed as imide derivative of muraglitazar level by LC/MS analysis; assay type: ADME, organism-based; conditions: in vivo, po
[16] = Biodistribution in orally dosed cynomolgus monkey urine assessed as O-dealkyl-O-demethyl muraglitazar level by LC/MS analysis; assay type: ADME, organism-based, Macaca fascicularis; conditions: in vivo, po
Rattus norvegicus [17] = assay: Biodistribution in orally dosed Sprague-Dawley rat urine assessed as 17-hydroxy-O-demethyl muraglitazar level by LC/MS analysis; assay type: ADME, organism-based; conditions: in vivo, po
Plasma [18] = assay: Biodistribution in orally dosed Sprague-Dawley rat plasma assessed as O-demethyl muraglitazar glucuronide level after 12 hrs by LC/MS analysis; assay type: ADME, organism-based; conditions: in vivo, po
Plasma [19] = assay: Biodistribution in orally dosed cynomolgus monkey plasma assessed as muraglitazar 12-carboxylic acid level after 4 hrs by LC/MS analysis; assay type: ADME, organism-based, Macaca fascicularis; conditions: in vivo, po
Hepatocyte [20] = assay: Metabolic stability in human hepatocytes assessed as 12-hydroxy muraglitazar level by LC/MS analysis relative to control; assay type: ADME, cell-based
[21] = Drug concentration in cynomolgus monkey urine at 1.9 mg/kg, po after 12 hrs; assay type: ADME, organism-based, Macaca fascicularis; parameters: dose 1.9 mg/kg, route oral; conditions: read-out: Drug uptake
[22] = Biodistribution in orally dosed human feces assessed as O-dealkyl muraglitazar level by LC/MS analysis; assay type: ADME, organism-based; conditions: in vivo, po
Plasma [23] = assay: Biodistribution in orally dosed cynomolgus monkey plasma assessed as 17-dihydroxy muraglitazar level after 1 hr by LC/MS analysis; assay type: ADME, organism-based, Macaca fascicularis; conditions: in vivo, po
Plasma [24] = assay: Biodistribution in orally dosed cynomolgus monkey plasma assessed as 17-dihydroxy muraglitazar level after 4 hrs by LC/MS analysis; assay type: ADME, organism-based, Macaca fascicularis; conditions: in vivo, po
[25] = Biodistribution in orally dosed Beagle dog feces assessed as 12-hydroxy muraglitazar level by LC/MS analysis; assay type: ADME, organism-based, Canis lupus familiaris; conditions: in vivo, po
[26] = Biodistribution in orally dosed Beagle dog urine assessed as O-dealkyl muraglitazar level by LC/MS analysis; assay type: ADME, organism-based, Canis lupus familiaris; conditions: in vivo, po
[27] = Metabolic stability in cynomolgus monkey hepatocytes assessed as 17-hydroxy muraglitazar level by LC/MS analysis relative to control; assay type: ADME, cell-based, Macaca fascicularis, Hepatocyte
Canis familiaris = assay: AUC (0 to T) in Beagle dog at 2 mg/kg, po after 4 hrs; assay type: ADME, organism-based, Canis lupus familiaris, Plasma; parameters: time < 4 hr, dose 2 mg/kg, route oral; conditions: in vivo
Rattus norvegicus [28] = assay: Biodistribution in orally dosed Sprague-Dawley rat feces assessed as 8-hydroxy-O-demethyl muraglitazar level by LC/MS analysis; assay type: ADME, organism-based; conditions: in vivo, po
Hepatocyte [29] = assay: Metabolic stability in human hepatocytes assessed as hydroxyl muraglitazar glucuronide level by LC/MS analysis relative to control; assay type: ADME, cell-based
[30] = Drug concentration in human bile at 20 mg/kg, po after 48 hrs; assay type: ADME, organism-based; parameters: dose 20 mg/kg, route oral; conditions: in vivo
Hepatocyte [31] = assay: Metabolic stability in Sprague-Dawley rat hepatocytes assessed as 12,17-dihydroxy muraglitazar level by LC/MS analysis relative to control; assay type: ADME, cell-based
[32] = Metabolic stability in CD1 mouse hepatocytes assessed as 17-hydroxy muraglitazar level by LC/MS analysis relative to control; assay type: ADME, cell-based, Hepatocyte
[33] = Biodistribution in orally dosed human feces assessed as O-demethyl muraglitazar level by LC/MS analysis; assay type: ADME, organism-based; conditions: in vivo, po
[34] = Drug concentration in bile duct-cannulated CD1 mouse feces assessed as recovery of radioactive dose at 1 mg/kg, po after 24 hrs; assay type: ADME, organism-based; parameters: dose 1 mg/kg, route oral; conditions: in vivo
Rattus norvegicus [35] = assay: Biodistribution in orally dosed Sprague-Dawley rat urine assessed as O-demethyl muraglitazar glucuronide level by LC/MS analysis; assay type: ADME, organism-based; conditions: in vivo, po
[36] = Biodistribution in orally dosed Beagle dog feces assessed as imide derivative of muraglitazar level by LC/MS analysis; assay type: ADME, organism-based, Canis lupus familiaris; conditions: in vivo, po
Hepatocyte [37] = assay: Metabolic stability in human hepatocytes assessed as O-dealkyl-O-demethyl muraglitazar level by LC/MS analysis relative to control; assay type: ADME, cell-based
Plasma [38] = assay: Biodistribution in orally dosed Beagle dog plasma assessed as O-demethyl muraglitazar level after 12 hrs by LC/MS analysis; assay type: ADME, organism-based, Canis lupus familiaris; conditions: in vivo, po
Hepatocyte [39] = assay: Metabolic stability in Sprague-Dawley rat hepatocytes assessed as 12-hydroxy muraglitazar level by LC/MS analysis relative to control; assay type: ADME, cell-based
Plasma [40] = assay: Biodistribution in orally dosed Beagle dog plasma assessed as 12-hydroxy-O-demethyl muraglitazar level after 4 hrs by LC/MS analysis; assay type: ADME, organism-based, Canis lupus familiaris; conditions: in vivo, po
[41] = Biodistribution in orally dosed cynomolgus monkey urine assessed as 8-hydroxy muraglitazar level by LC/MS analysis; assay type: ADME, organism-based, Macaca fascicularis; conditions: in vivo, po
Plasma [42] = assay: Biodistribution in orally dosed human plasma assessed as O-demethyl muraglitazar level after 12 hrs by LC/MS analysis; assay type: ADME, organism-based; conditions: in vivo, po
[43] = Metabolic stability in CD1 mouse hepatocytes assessed as 12-hydroxy muraglitazar level by LC/MS analysis relative to control; assay type: ADME, cell-based, Hepatocyte
[44] = Drug concentration in bile duct-cannulated cynomolgus monkey feces assessed as recovery of radioactive dose at 5 mg/kg, po after 48 hrs; assay type: ADME, organism-based, Macaca fascicularis; parameters: dose 5 mg/kg, route oral; conditions: in vivo
Plasma [45] = assay: Biodistribution in orally dosed Beagle dog plasma assessed as O-demethyl muraglitazar level after 1 hr by LC/MS analysis; assay type: ADME, organism-based, Canis lupus familiaris; conditions: in vivo, po
Plasma [46] = assay: Biodistribution in orally dosed cynomolgus monkey plasma assessed as O-Dealkyl muraglitazar level after 1 hr by LC/MS analysis; assay type: ADME, organism-based, Macaca fascicularis; conditions: in vivo, po
[47] = Metabolic stability in CD1 mouse hepatocytes assessed as O-demethyl muraglitazar level by LC/MS analysis relative to control; assay type: ADME, cell-based, Hepatocyte
[48] = Drug concentration in human feces assessed as recovery of radioactive dose at 20 mg, po after 240 hrs; assay type: ADME, organism-based; conditions: in vivo
Plasma [49] = assay: Biodistribution in orally dosed cynomolgus monkey plasma assessed as O-Dealkyl muraglitazar level after 4 hrs by LC/MS analysis; assay type: ADME, organism-based, Macaca fascicularis; conditions: in vivo, po
[50] = Biodistribution in orally dosed cynomolgus monkey feces assessed as 8,12-dihydroxy muraglitazar level by LC/MS analysis; assay type: ADME, organism-based, Macaca fascicularis; conditions: in vivo, po

## COc1ccc(OC(=O)N(CC(=O)O)Cc2ccc(OCCc3nc(-c4ccccc4)oc3C)cc2)cc1 [MURAGLITAZAR]
[1]
  Drug uptake: < 0.2%
[2]
  Drug uptake: 1.48%
[3]
  Drug uptake: 1%
[4]
  Drug uptake: < 0.2%
Hepatocyte [5]
  Drug uptake: < 0.2%
Plasma [6]
  Drug uptake: 1%
[7]
  Tmax: 1 h
Plasma [8]
  Drug uptake: 0.9%
[9]
  dose excreted at 96 h: 75%
Cynomolgus monkey
  Cmax: 7.1 ugequiv/ml
[10]
  Drug uptake: 0.56%
Plasma [11]
  Drug uptake: < 0.05%
Rattus norvegicus [12]
  Drug uptake: 4.39%
Plasma [13]
  Drug uptake: 3.5%
[14]
  Drug uptake: 16.1%
[15]
  Drug uptake: 2.46%
[16]
  Drug uptake: 0.33%
Rattus norvegicus [17]
  Drug uptake: 0.01%
Plasma [18]
  Drug uptake: 0.4%
Plasma [19]
  Drug uptake: < 0.05%
Hepatocyte [20]
  Drug uptake: 1.9%
[21]
  dose excreted at 12 h: 1.7%
[22]
  Drug uptake: 0.8%
Plasma [23]
  Drug uptake: 8%
Plasma [24]
  Drug uptake: 16.2%
[25]
  Drug uptake: 1.1%
[26]
  Drug uptake: 0.44%
[27]
  Drug uptake: 7.9%
Canis familiaris
  AUC: 1.1 ugequiv.h/ml
Rattus norvegicus [28]
  Drug uptake: 9.65%
Hepatocyte [29]
  Drug uptake: 0.2%
[30]
  Drug uptake: 0.068 mgequiv/ml
Hepatocyte [31]
  Drug uptake: 0.3%
[32]
  Drug uptake: 5.4%
[33]
  Drug uptake: 3.33%
[34]
  Drug uptake: 8.2%
Rattus norvegicus [35]
  Drug uptake: < 0.01%
[36]
  Drug uptake: 0.89%
Hepatocyte [37]
  Drug uptake: < 0.2%
Plasma [38]
  Drug uptake: 9%
Hepatocyte [39]
  Drug uptake: 1.3%
Plasma [40]
  Drug uptake: 1%
[41]
  Drug uptake: 0.12%
Plasma [42]
  Drug uptake: 0.4%
[43]
  Drug uptake: 11%
[44]
  Drug uptake: 15%
Plasma [45]
  Drug uptake: 1%
Plasma [46]
  Drug uptake: 0.3%
[47]
  Drug uptake: 1.2%
[48]
  Drug uptake: 50.7%
Plasma [49]
  Drug uptake: 0.3%
[50]
  Drug uptake: 0.16%
